“And” between values parts separate entries of the source, which are not always exact repeats. Equal entries are not always repeated.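 Following 48 hours of exposure in 96-well plates, responses at five concentrations were used to interpolate endpoints linearly. GI50: concentration for 50% inhibition of growth. TGI is the concentration that stops growth completely.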
How the values were obtained:
Assay in all cases: NCI anticancer screen, dose series, 48 h
HOP-62 NSCLC = tested on: HOP-62 NSCLC
DMS 114 small cell lung = tested on: DMS 114 small cell lung
UACC-257 melanoma = tested on: UACC-257 melanoma
RXF 393 renal = tested on: RXF 393 renal
NCI-H460 lung = tested on: NCI-H460 lung
NCI-H226 lung = tested on: NCI-H226 lung
HOP-18 NSCLC = tested on: HOP-18 NSCLC
COLO 205 colon = tested on: COLO 205 colon
TK-10 renal = tested on: TK-10 renal
PC-3 prostate = tested on: PC-3 prostate

SMILES	GI50 (HOP-62 NSCLC) [µM]	TGI (HOP-62 NSCLC)	GI50 (DMS 114 small cell lung) [µM]	TGI (DMS 114 small cell lung) [µM]	GI50 (UACC-257 melanoma) [µM]	TGI (UACC-257 melanoma)	GI50 (RXF 393 renal) [µM]	TGI (RXF 393 renal)	GI50 (NCI-H460 lung) [µM]	TGI (NCI-H460 lung)	GI50 (NCI-H226 lung) [µM]	TGI (NCI-H226 lung) [µM]	TGI (HOP-18 NSCLC) [µM]	TGI (COLO 205 colon) [µM]	TGI (TK-10 renal) [µM]	GI50 (PC-3 prostate) [µM]	TGI (PC-3 prostate)	GI50 (COLO 205 colon) [µM]	GI50 (TK-10 renal) [µM]	GI50 (HOP-18 NSCLC) [µM]
CC[O-].CC[O-].O=C([CH-]C(=O)c1cccnc1)c1ccccc1.O=C([CH-]C(=O)c1cccnc1)c1ccccc1.[Ti+4]	48.4	> 100 µM	> 100	> 100	52.2	> 100 µM	19.7	70.4 µM	31.2	> 100 µM	68.1	> 100								
CN(C)CCN(C)CC1COC(C)(C)O1 (centres undefined)		> 100 µM				> 100 µM		> 100 µM		> 100 µM		> 100	> 100	> 100	> 100					
Cc1cc2cc3cc(C)c(N(C)C)cc3[n+](C)c2cc1N(C)C	6.03	24.3 µM			4.73	37.7 µM	6.09	23.4 µM	2.65	11 µM	5.68	48		17.5	58.4	2.46	33.8 µM	2.51	5.19	
CCC1C(=O)OCc2c1cc1n(c2=O)Cc2cc3ccccc3nc2-1 (centres undefined)		25.5 µM				> 100 µM		> 94.9 µM		64.4 µM		> 100		> 100	> 100		> 100 µM			
O=C(C=Nc1ccccc1C(=O)[O-])c1cccs1.O=C(C=Nc1ccccc1C(=O)[O-])c1cccs1.[Co+2]		> 100 µM				> 100 µM				> 100 µM			> 100	> 100	> 100					
COc1cc(C(=O)N2N=C(c3ccc(S(C)(=O)=O)cc3)CC2c2ccco2)cc(OC)c1OC (centres undefined)	26.7	> 100 µM			> 100	> 100 µM	4.74	56 µM	3.51	> 100 µM	> 57.3	> 100		10.1	> 100	2.93	> 100 µM	2.27	29	
COc1ccc2c(c1O)C13CCN(C)C(C2)C1CCC1(C3)OCCO1 (centres undefined)		> 100 µM				> 100 µM		> 100 µM		> 100 µM		> 100		> 100	> 100		> 100 µM			
C=C(C)C1Cc2c(cc(OC)c3c(=O)c4cccc(O)c4oc23)O1 (centres undefined)		36.5 µM				> 100 µM		35.9 µM		62.6 µM		44		> 100	46.9		> 100 µM			
[Cl][Sn]([Cl])([c]1ccccc1)[c]1ccccc1			2.67	> 100	13.6	27 µM	2.79				17.7	32.2	31.8		29.7				15.7	17.9
N#Cc1ncc(-c2ccc(C(F)(F)F)cc2)c(NCc2cc(C(F)(F)F)cc(C(F)(F)F)c2)n1	4.73	39.2 µM			3.06	9.92 µM	3.37	20.1 µM	3.02	10.2 µM	4.85	> 100		4.57	56	2.42	8.48 µM	2.24	5.84	
CCN(CC)CCCn1cnc2ncccc2c1=O		> 100 µM		> 100				> 100 µM		> 100 µM		> 100		> 100	> 100					
O=C1CC(c2cccc(O)c2)C2(C(=O)NC(=S)NC2=O)C(c2cccc(O)c2)C1 (centres undefined)	> 100	> 100 µM			> 100	> 100 µM	> 100	> 100 µM	> 100	> 100 µM	> 100	> 100		> 100	> 100	> 100	> 100 µM	> 100	> 100	
COc1ccc2c(c1)C(=O)N1CCOC1C2C(=O)O (centres undefined)		> 100 µM		> 100		> 100 µM				> 100 µM			> 100		> 100					
Nc1ncnc2c1ncn2Cc1ccc(C23CC4CC(CC(C4)C2)C3)c(OCc2cc(F)c(F)cc2F)c1	6.98	18.9 µM			2.33	7.4 µM	2.02	8.36 µM	4.33	> 100 µM	> 100	> 100		> 100	> 100	2.17	10.9 µM	14.4	4.37	
N/C(=C\C(=O)n1nc(-c2ccccc2)cc1N)c1ccccc1	8.3	32.4 µM			17.4	70.3 µM	13.3	44.8 µM	3.55	15.8 µM	11.2	47.5		14.7	> 100	4.35	28.9 µM	3.6	7.72	
Cc1nc(-c2ccccc2)c(Cc2ccccc2O)c(=O)[nH]1		> 100 µM				> 100 µM		> 100 µM		> 100 µM		> 100		> 100	> 100		> 100 µM			
O=C1C2C(C(=O)[N]1[Hg][c]1cccs1)C1(Cl)C(Cl)=C(Cl)C2(Cl)C1(Cl)Cl (centres undefined)	2.52	6.84 µM			1.28	2.83 µM	1.5	3 µM	3.04	10.1 µM	6.88	37.8		2.65	3.04	1.72	4.18 µM	1.22	1.65	
Oc1ccc(CN2CCC(N3CCOCC3)CC2)c2cccnc12	42.7	> 100 µM			32.3	76.5 µM	23	95.5 µM	46.9	> 100 µM	41.4	> 100		> 100	> 100	46.2	> 100 µM	49.8	62.4	

SMILES	GI50 (HOP-62 NSCLC) [µM]	TGI (HOP-62 NSCLC)	GI50 (DMS 114 small cell lung) [µM]	TGI (DMS 114 small cell lung) [µM]	GI50 (UACC-257 melanoma) [µM]	TGI (UACC-257 melanoma)	GI50 (RXF 393 renal) [µM]	TGI (RXF 393 renal)	GI50 (NCI-H460 lung) [µM]	TGI (NCI-H460 lung)	GI50 (NCI-H226 lung) [µM]	TGI (NCI-H226 lung) [µM]	TGI (HOP-18 NSCLC) [µM]	TGI (COLO 205 colon) [µM]	TGI (TK-10 renal) [µM]	GI50 (PC-3 prostate) [µM]	TGI (PC-3 prostate)	GI50 (COLO 205 colon) [µM]	GI50 (TK-10 renal) [µM]	GI50 (HOP-18 NSCLC) [µM]
Nc1ccccc1-c1ccc([N+](=O)[O-])cc1	> 100	> 100 µM			21.1	> 100 µM	55.9	> 100 µM	4.44	> 100 µM	33.6	> 100		27.2	> 100	15	> 100 µM	10.7	25.9	
COc1cc(-n2cc(-c3ccc(F)cc3)nc2SCc2ccccc2)cc(OC)c1OC	> 100	> 100 µM			> 100	> 100 µM	19.4	> 100 µM	77.2	> 100 µM	> 100	> 100		> 100	> 100	9.48	> 100 µM	> 100	> 100	
CC(C)c1c(C(=O)Nc2ccccc2)c(-c2ccccc2)c(-c2ccc(F)cc2)n1CC[C@@H]1CC=CC(=O)O1	1.85	4.14 µM			1.97	3.92 µM	1.62	3.13 µM	2.05	4.21 µM	1.71	3.26		3.5	4.67	1.31	3.86 µM	1.68	2.18	
Cn1ccnc1C(=O)/C=C/c1ccc(C(=O)Nc2ccc(S(F)(F)(F)(F)F)cc2)cc1	4.05	> 14.3 µM			2.18	> 14.3 µM	2.65	13.9 µM	0.534	2.57 µM	6.57	> 14.3		12.3	> 14.3	1.9	> 14.3 µM	2	4	
O=c1ccc(N=Nc2ccc([N+](=O)[O-])cc2)ccc1O	18.1	> 100 µM			10.6	81.6 µM	7.37	> 100 µM	3.48	> 100 µM	12.7	> 100		> 100	> 100	5.15	> 100 µM	21.7	20	
COc1cc2c(cc1O)-c1c(cnn1-c1ccc([N+](=O)[O-])cc1)CCC2		> 100 µM				52 µM		> 100 µM		> 100 µM		47.5		38.1	32.6		58.7 µM			
O=C1c2cccnc2C(=O)C2C3C=CC(C3)C12 (centres undefined)		20.4 µM				26.2 µM		10.3 µM		15.6 µM		32		26.5	31.9		21.8 µM			
O=c1c2ccccc2c(Br)c(Br)c2ccccc12	21	41.9 µM			7.48	43.6 µM	3.32	12.7 µM	14.5	34.5 µM	24.1	79.5		23.7	18	10.1	30.2 µM	8.61	3.91	
COc1cc(-c2nc3sccn3c2-c2ccnc(NCCNS(=O)(=O)c3ccc(Cl)cc3)n2)ccc1F	5.01	> 100 µM			4.47	> 100 µM	1.64	> 100 µM	5.16	> 100 µM	2.37	10.5		> 100	> 100	0.577	> 100 µM	3.48	9.44	
COc1ccc2c(c1)=C(C=C1C=CN(O)C=C1)C(=O)N=2	40.2	> 100 µM			44.7	> 100 µM	33.9	98.3 µM	> 50.1	> 88.3 µM	25.7	97.5		32.8	> 90.5	29.5	> 100 µM	3.84	36.3	
COc1cc2c3c(n(CCCN(CCN)CCCn4c5c(c6cc(OC)c(OC)cc6c4=O)C(=O)c4cc6c(cc4-5)OCO6)c(=O)c2cc1OC)-c1cc2c(cc1C3=O)OCO2	0.33	1.64 µM			11.6	> 89.1 µM	3.39	12.7 µM	0.469	13.6 µM	0.449	2.76		> 57	> 24.8	2.57	> 45.2 µM	0.645	3.11	
CC(=O)N1c2ccccc2C2=CC3C4C(=O)N(c5ccccc5)C(=O)C4C21C1C(=O)N(c2ccccc2)C(=O)C31 (centres undefined)				44.1		> 100 µM				> 100 µM			> 100	> 100	> 100					
N=C(N)c1ccc(OCCOCCOc2ccc(C(=N)N)cc2)cc1	> 100	> 100 µM			38.3	> 100 µM	> 100	> 100 µM	44.2	> 100 µM	> 100	> 100		> 100	> 100	> 100	> 100 µM	50.1	39.2	
S=C(N/N=C(/c1ccccc1)c1ccccn1)N1CCCCC1	< 0.001	2.33 µM and 2.78 µM			< 0.001	1.04 µM and 1.16 µM	0.0129	1.43 µM and 3.38 µM	0.00149	2.31 µM and 1.52 µM	0.00148				1.97	< 0.001	1.6 µM and 4.08 µM	< 0.001		
Clc1ccc(/C=C/c2cc(N3CCOCC3)c3cc(Cl)c(Cl)cc3n2)cc1	> 100	> 100 µM			> 100	> 100 µM	> 100	> 100 µM	> 100	> 100 µM	> 100	> 100		> 100	> 100	1.61	> 100 µM	> 100	> 100	
C/C=C/C/C=C/CCC(=O)[C@H]1O[C@H]1C(N)=O	13	28.2 µM			13.1	27.3 µM	5.07	19.1 µM	17	39.4 µM	15.1	40.6		31.5	30.5		40.7 µM	15.3	16.5	
Nc1nc(N)c(Cn2ccnc2)c(=O)[nH]1		> 100 µM				> 100 µM		> 100 µM		> 100 µM		> 100		> 100	> 100		> 100 µM			
